{"source": "patent US20070128589A1", "about": "“Substrates, sensors, and methods for assessing conditions in females” (priority 2005, published 2007)", "key": {"C. albicans [1]": {"system": "C. albicans", "test": "G11 peptide detection of C. albicans grown in artificial vaginal fluid", "format": "biochemical, Candida albicans", "conditions": "FIG. 23"}, "C. albicans [2]": {"system": "C. albicans", "test": "Identification of peptide targets for C. albicans", "format": "biochemical, Candida albicans", "protocol": "Clones of green fluorescent protein (GFP) tagged conjugates were used to identify targets in a high throughput screen. Each clone contained a plasmid harboring a gene that contains a polyhistidine tag (6 his), 30 random nucleotides (corresponding to 10 random amino acids), and green fluorescent protein (GFP). On the day before a screen, 864 glowing clones are grown up overnight at 37° C. in deep well microtiter plates (1 ml/well). In the morning, the cultures can be induced with 1 mM IPTG for 1 hour, the cells can be centrifuged for five minutes, and then the media can be decanted. Lysozyme (2 mg/ml) can be added and the cells can be flash frozen 3 times. The samples can be treated with 100 ul/well of DNAse I at 37° C. for 30 minutes to reduce the viscosity by digesting the DNA. An aliquot of the sample can then be transferred to a microtiter filter plate containing 10 μl of nickel-NTA resin. The pipeting of the reagents (IPTG, lysozyme, DNAse I, and beads) can be performed with a Tecan Genesis RSP 100 Robot with Gemini version 4.0 software.\nThe plates can be filtered by centrifugation three times with PBS to remove unbound material and then the GFP-peptide-bound bead can be incubated with microbial extract for 20 min at 37° C. The sample can be filtered and the flow through fluorescence can be compared with the background from the prior wash. If the microbe has a protease that finds the ideal target, then the release of GFP fluorescence from the bead can be over 100 times greater than the background.\n(SEQ ID NO: 8), the sequence QKTTIKKLKH (H2) (SEQ ID NO: 9), the sequence KPKAFLKVGN (R8) (SEQ ID NO: 6), the sequence TPIQIHTILH (SEQ ID NO: 10), the sequence […] (SEQ ID NO: 11), the sequence […] (SEQ ID NO: 12), and the sequence […] (SEQ ID NO: 13)."}, "[3]": {"system": "unidentified protease from Lactobacillus acidophilus", "test": "Peptide-HRP Affigel bead detection of Lactobacillus protease", "format": "biochemical", "conditions": "FIG. 12", "protocol": "The two putative peptides were synthesized, coupled to Affigel beads (Bio-Rad, Hercules Calif.), and then labeled with horseradish peroxidase in the following manner:\nPeptides were coupled to Affigel beads as described by the manufacturer. Similar results were obtained using small latex beads with carboxylic acid groups. Briefly, 1 mg of peptide was incubated with 1 ml of affigel in conjugation buffer (phosphate buffered saline) for 1-2 hours at room temperature. For the small latex beads functionalized with carboxylic acids, the peptides/proteins are coupled with EDC (1-ethyl-3-[3 dimethylaminopropyl] carbodiimide hydrochloride). The beads are either used immediately or conjugated further with HRP-maleimide or stored at 4° C. under a cushion of 2% trehalose or 2% sucrose.\nHRP is conjugated to sulfo-SMCC though a reactive primary amine group. The reaction is performed for 1 hour in the presence of 50 mM sodium phosphate buffer (pH 7.4). The functionalized HRP is removed from the unbound sulfo-SMCC by gel filtration using P6 Biogel P polyacrylamide beads, Biorad (Hercules, Calif.) or Sephadex G50 beads (Amersham Biosciences, Piscataway, N.J.). The HRP-maleimide elutes in the void volume, whereas the free sulfo-SMCC elutes very slowly from the column. The HRP binds hemin, and, thus, has a brown color that can be used to quickly identify the void volume containing the HRP-maleimide. […]"}, "Gardnerella vaginalis": {"system": "Gardnerella vaginalis", "test": "HRP release from Affigel-GV2-HRP beads, ABTS/H2O2 read at 405 nm", "format": "biochemical", "conditions": "peptide conjugated to HRP on Affigel beads, 5 minutes", "protocol": "Various bacteria were cultured overnight at 37° C. in NYC III media with 5% CO2. A 10% slurry of Affigel-GV2-HRP in PBS was prepared, and 20 μl was added to six wells of a 96-well filter plate (Millipore Multi-screen HTS). Aliquots of the bacteria, including Gardnerella vaginalis, Pseudomonas aeruginosa, E. coli, Streptococcus pyogenes, Enterococcus faecalis, and Staphylococcus aureus, were added (100 μl) to the beads, and the plate was allowed to sit for 5 minutes at ambient temperature. The supernatants were centrifuged into a low-binding assay plate (Coming 3641), and assays for HRP were then run. […]\nGardnerella vaginalis was detected with the peptide PFINETYAKFC (SEQ ID NO: 1) which was conjugated to HRP. […] Alternatively, the color change can be measured on a plate reader at 405 nm.\n(§1) FIG. 11 illustrates the specificity of the GV2 (PFINETYAKFC) (SEQ ID NO: 1) peptide for Gardnerella vaginalis over the course of five minutes when incubated with Gardnerella vaginalis, Staphylococcus aureus, Streptococcus pyogenes, Escherichia coli (E. coli), Pseudomonas aeruginosa, and Enterococcus faecalis. The extracts were filtered through microtiter plate filters and the HRP release was measured at 405 nm with ABTS substrate in the presence of hydrogen peroxide (H202)."}, "E. coli": {"system": "E. coli", "test": "HRP release from Affigel-GV2-HRP beads, ABTS/H2O2 read at 405 nm", "format": "biochemical, Escherichia coli", "conditions": "5 minutes at ambient temperature", "protocol": "(§2) Various bacteria were cultured overnight at 37° C. in NYC III media with 5% CO2. A 10% slurry of Affigel-GV2-HRP in PBS was prepared, and 20 μl was added to six wells of a 96-well filter plate (Millipore Multi-screen HTS). Aliquots of the bacteria, including Gardnerella vaginalis, Pseudomonas aeruginosa, E. coli, Streptococcus pyogenes, Enterococcus faecalis, and Staphylococcus aureus, were added (100 μl) to the beads, and the plate was allowed to sit for 5 minutes at ambient temperature. The supernatants were centrifuged into a low-binding assay plate (Coming 3641), and assays for HRP were then run. 2,2′-azino-bis(3-ethylbenzthiazoline-6-sulfonic acid) (ABTS, US Biological) is a commonly used substrate for HRP, giving a water-soluble blue-green color in the presence of HRP and hydrogen peroxide. The formation of the bluegreen color can be followed at 405 nm, with higher slopes indicating the presence of higher amounts of HRP."}, "[4]": {"system": "Staphylococcus aureus, Streptococcus pyogenes, Escherichia coli (E. coli), Pseudomonas aeruginosa, and Enterococcus faecalis", "test": "HRP release from GV2-HRP beads, specificity against other common pathogens", "format": "biochemical", "conditions": "five minutes, FIG. 11", "protocol": "as §2, with “The formation of the bluegreen color can be followed at 405 nm, with higher slopes indicating the presence of higher amounts of HRP.” left out\nas §1"}}, "note": "Entries after “also recorded” stand apart in the source; their conditions may differ. No end group written: not given here."}
{"sequence": "TPIQIHTILH (Peptide Substrate of Candida spp.) [G11]", "values": [{"measurement": "ability to detect C. albicans", "setting": "C. albicans [1]", "value": "able to detect C. albicans; also recorded: able to detect Candida albicans"}, {"measurement": "identified as peptide target for C. albicans", "setting": "C. albicans [2]", "value": "peptide targets for C. albicans"}]}
{"sequence": "ITTTSSKHEHC (Peptide Substrate of Lactobacillus acidophilus) [peptide substrate detecting a protease from Lactobacillus]", "values": [{"measurement": "detection of protease from Lactobacillus", "setting": "[3]", "value": "detects an unknown protease; also recorded: detects an unidentified protease"}]}
{"sequence": "PFINETYAKFC (also: Affigel bead and HRP conjugate) [GV2]", "values": [{"measurement": "HRP release / color change with H2O2 and ABTS substrate", "setting": "Gardnerella vaginalis", "value": "quite specific for G. vaginalis; also recorded: turns blue; also recorded: detects unidentified protease from G. vaginalis"}, {"measurement": "HRP release / color change with H2O2 and ABTS substrate", "setting": "Gardnerella vaginalis; listed as PFINETYAKFC", "value": "color change was observed quickly"}, {"measurement": "HRP release signal (ABTS, 405 nm)", "setting": "E. coli", "value": "small amount of signal"}, {"measurement": "color change (HRP release, ABTS, 405 nm) with other common pathogens", "setting": "[4]", "value": "not in the presence of other common pathogens"}]}
